Test results as given in article PMC9370394, “New Monocyclic Terpenoid Lactones from a Brown Algae Sargassum macrocarpum as Monoamine Oxidase Inhibitors” (Plants, 2022).

Target: T1, human monoamine oxidase A (hMAO-A) (Homo sapiens, UniProt P21397)
T1 construct: gene MAOA
T1 sequence (P21397 1-527): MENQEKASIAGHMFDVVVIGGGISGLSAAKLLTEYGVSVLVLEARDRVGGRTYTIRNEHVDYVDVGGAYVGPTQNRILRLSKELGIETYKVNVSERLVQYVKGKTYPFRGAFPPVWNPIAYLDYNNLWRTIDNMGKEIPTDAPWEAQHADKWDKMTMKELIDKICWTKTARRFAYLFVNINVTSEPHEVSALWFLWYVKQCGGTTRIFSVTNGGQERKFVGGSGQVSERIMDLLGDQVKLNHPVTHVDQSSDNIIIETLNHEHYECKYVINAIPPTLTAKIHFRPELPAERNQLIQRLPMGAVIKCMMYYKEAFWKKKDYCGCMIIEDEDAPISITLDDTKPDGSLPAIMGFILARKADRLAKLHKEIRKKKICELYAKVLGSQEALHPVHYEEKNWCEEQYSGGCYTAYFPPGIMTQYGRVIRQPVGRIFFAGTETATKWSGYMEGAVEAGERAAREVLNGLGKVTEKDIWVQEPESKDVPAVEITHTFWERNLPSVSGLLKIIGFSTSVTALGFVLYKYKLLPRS
Test: MAO-Glo luminescence enzyme assay, single concentration of […]
Format: biochemical

inhibition at 200 µM: 42.2 ± 2.68%
Structure (SMILES): CC(=O)CC/C=C1/CC[C@H](C(C)(C)O)OC1=O [compound 1, 6R-(2-hydroxypropan-2-yl)-3Z-(4-oxopentylidene)tetrahydro-2H-pyran-2-one]
